Data as given in patent publication US8679746B2, “Compositions and methods for predicting outcome of treatment” (Dako Denmark A/S, priority 2005, dated 2014).

Key:
[1] = tested on: metastatic head and neck cancer; experiment: 5-FU infusion in a patient with metastatic head and neck cancer; assay type: in vivo; conditions: one patient; 1000 mg/m^2 per 24 hours, 120 hours infusion; evaluated after one and a half month
Method: A patient with metastatic head and neck cancer was treated with 5-fluorouracil (5-FU) infusion at a dose of 1000 mg/m^2 per 24 hours. The total infusion time was 120 hours.

breast cancer = conditions: in vivo; cited from earlier work
[2] = cited from earlier work

With O=c1[nH]cc(F)c(=O)[nH]1 [5-FU, 5-Fluorouracil] the treatment response [1] was “progressive disease”.
In the case of COc1cccc2c1C(=O)c1c(O)c3c(c(O)c1C2=O)C[C@@](O)(C(=O)CO)C[C@@H]3O[C@H]1C[C@H](N)[C@@H](O)[C@H](C)O1 [epirubicin], the “reduction in overall survival on substitution of methotrexate in CMF with epirubicin” value (breast cancer) is given as 25%.
For CCCCCOC(=O)Nc1nc(=O)n([C@@H]2O[C@H](C)[C@@H](O)[C@H]2O)cc1F [capecitabine], the “higher concentrations in tumor tissue compared to plasma” value ([2]; tumor tissue vs plasma) is listed as 21 fold and the “higher FU concentration in tumor compared to normal tissue” value ([2]; tumor vs normal tissue) is listed as 3.2 fold.
